Assay results from patent US5610303A, “Arylamino pyrimidine compound” (Ube Industries, Ltd., priority 1992, dated 1997).

How the values were obtained:
Format in all cases: biochemical
[1] = molecular target: T1, acetylcholinesterase (Rattus norvegicus, UniProt P37136); experiment: Acetylcholinesterase-inhibiting activity (Test example 1; crude synaptosome fraction of rat cerebrum, modified Ellman method)
T1 construct: a crude synaptosome fraction of a rat cerebrum was used; from tissue; host or cells: rat cerebrum, crude synaptosome fraction
Method: Acetylcholinesterase-inhibiting activity
As an enzyme source, a crude synaptosome fraction of a rat cerebrum was used.
That is, to the crude synaptosome fraction of the rat cerebrum suitably diluted with a 0.1M phosphate buffer were added each compound to be tested, 5,5'-dithiobis(2-nitrobenzoic acid) (hereinafter referred to as DTNB) and acetylthiocholine as a substrate, and the mixture was incubated at 25° C. for a predetermined time.
(§1) Enzyme activity-inhibiting rates were calculated from absorbances in the presence of the compounds to be tested having various concentrations based on absorbances in the absence of the compounds to be tested, with absorbance when reaction was carried out in the absence of the substrate being defined as blank. IC50 values were calculated by Hill analysis.

[2] = molecular target: T2, butyrylcholinesterase (Rattus norvegicus, UniProt Q9JKC1); experiment: Butyrylcholinesterase-inhibiting activity (Test example 2; rat serum, modified Ellman method)
T2 construct: As an enzyme source, a rat serum was used; from tissue; host or cells: rat serum
Method: Butyrylcholinesterase-inhibiting activity
As an enzyme source, a rat serum was used.
The activity of butyrylcholinesterase was measured by a partially modified method of the above method of Ellman et. al. That is, to the rat serum suitably diluted with a 0.1M phosphate buffer were added each compound to be tested, DTNB and butyrylthiocholine as a substrate, and the mixture was incubated at 25° C. for a predetermined time.
as §1

[3] = molecular target: T3, A type monoamine oxidase (Rattus norvegicus, UniProt P21396); experiment: A type monoamine oxidase-inhibiting activity (Test example 3; rat cerebrum homogenate, 14C-5-HT substrate); settings: 5-HT 200 μM, preincubated 37° C. 30 minutes, Hill analysis, read-out: IC50 value, Inhibition of A type monoamine oxidase
T3 construct: a rat cerebrum homogenized in a 0.1M phosphate buffer was used; from tissue; host or cells: rat cerebrum homogenate
T3 sequence (P21396 1-526): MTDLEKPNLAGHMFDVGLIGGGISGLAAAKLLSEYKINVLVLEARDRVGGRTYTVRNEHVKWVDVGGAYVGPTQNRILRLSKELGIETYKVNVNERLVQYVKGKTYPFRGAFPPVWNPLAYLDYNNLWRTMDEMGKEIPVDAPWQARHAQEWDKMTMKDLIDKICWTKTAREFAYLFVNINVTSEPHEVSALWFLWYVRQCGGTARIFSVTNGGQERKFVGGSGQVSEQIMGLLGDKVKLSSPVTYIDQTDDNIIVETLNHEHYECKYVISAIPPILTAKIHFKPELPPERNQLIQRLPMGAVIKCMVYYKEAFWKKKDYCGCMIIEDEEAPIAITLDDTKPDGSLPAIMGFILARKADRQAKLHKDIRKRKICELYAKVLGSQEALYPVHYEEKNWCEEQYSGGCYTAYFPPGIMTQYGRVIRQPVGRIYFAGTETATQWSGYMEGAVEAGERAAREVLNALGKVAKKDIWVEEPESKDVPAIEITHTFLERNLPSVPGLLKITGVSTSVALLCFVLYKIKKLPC
Method: (§2) A type and B type monoamine oxidase-inhibiting activity
(§3) As an enzyme source, a rat cerebrum homogenized in a 0.1M phosphate buffer was used.
(§4) That is, the rat cerebrum homogenate suitably diluted with a 0.1M phosphate buffer and each compound to be tested were preincubated at 37° C. for 30 minutes. […] After the mixture was separated into two layers by centrifugation, a part of the organic layer was mixed with liquid scintillation cocktail. Radioactivity extracted into the organic layer was measured by a liquid scintillation counter to calculate the enzyme activity.
as §1, with “Inhibiting” for “Enzyme activity-inhibiting”, “enzyme activities” for “absorbances”, “homogenate” for “substrate”

[4] = molecular target: T4, B type monoamine oxidase (Rattus norvegicus, UniProt P19643); experiment: B type monoamine oxidase-inhibiting activity (Test example 3; rat cerebrum homogenate, 14C-β-PEA substrate); settings: β-PEA 20 μM, preincubated 37° C. 30 minutes, Hill analysis, read-out: IC50 value, Inhibition of B type monoamine oxidase
T4 construct: a rat cerebrum homogenized in a 0.1M phosphate buffer was used; from tissue; host or cells: rat cerebrum homogenate
T4 sequence (P19643 1-520): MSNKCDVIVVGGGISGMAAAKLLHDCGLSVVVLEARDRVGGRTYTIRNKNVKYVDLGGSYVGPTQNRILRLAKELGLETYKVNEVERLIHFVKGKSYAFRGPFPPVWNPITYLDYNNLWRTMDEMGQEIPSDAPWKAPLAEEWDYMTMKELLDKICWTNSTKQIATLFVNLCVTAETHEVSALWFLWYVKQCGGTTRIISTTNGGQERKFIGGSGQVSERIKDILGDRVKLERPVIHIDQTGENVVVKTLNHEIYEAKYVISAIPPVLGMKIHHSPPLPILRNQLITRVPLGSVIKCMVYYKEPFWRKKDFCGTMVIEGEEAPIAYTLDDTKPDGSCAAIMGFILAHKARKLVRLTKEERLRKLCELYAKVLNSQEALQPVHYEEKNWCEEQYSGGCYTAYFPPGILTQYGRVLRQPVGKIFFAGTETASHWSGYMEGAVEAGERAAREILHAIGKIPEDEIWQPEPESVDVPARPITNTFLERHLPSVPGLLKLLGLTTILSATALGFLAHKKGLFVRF
Method: as §2, §3, §4
as §1, with “Inhibiting” for “Enzyme activity-inhibiting”, “enzyme activities” for “absorbances”, “homogenate” for “substrate”

T1 sequence (P37136 32-614): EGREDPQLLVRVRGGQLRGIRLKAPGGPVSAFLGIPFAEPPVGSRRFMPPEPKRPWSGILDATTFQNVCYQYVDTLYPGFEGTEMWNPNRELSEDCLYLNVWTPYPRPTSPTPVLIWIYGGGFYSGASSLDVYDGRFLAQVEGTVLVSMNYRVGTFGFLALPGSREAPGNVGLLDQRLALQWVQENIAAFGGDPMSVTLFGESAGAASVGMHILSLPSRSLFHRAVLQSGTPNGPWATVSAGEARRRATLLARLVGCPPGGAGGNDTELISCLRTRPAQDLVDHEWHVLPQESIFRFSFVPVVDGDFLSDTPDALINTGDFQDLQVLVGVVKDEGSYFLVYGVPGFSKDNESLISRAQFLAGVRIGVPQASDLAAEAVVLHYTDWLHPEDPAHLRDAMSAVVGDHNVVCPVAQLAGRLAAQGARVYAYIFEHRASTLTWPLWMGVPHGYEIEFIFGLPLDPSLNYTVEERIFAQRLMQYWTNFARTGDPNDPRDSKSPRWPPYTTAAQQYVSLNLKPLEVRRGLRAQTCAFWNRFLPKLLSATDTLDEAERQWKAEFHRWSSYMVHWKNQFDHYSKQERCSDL
T2 sequence (Q9JKC1 24-597): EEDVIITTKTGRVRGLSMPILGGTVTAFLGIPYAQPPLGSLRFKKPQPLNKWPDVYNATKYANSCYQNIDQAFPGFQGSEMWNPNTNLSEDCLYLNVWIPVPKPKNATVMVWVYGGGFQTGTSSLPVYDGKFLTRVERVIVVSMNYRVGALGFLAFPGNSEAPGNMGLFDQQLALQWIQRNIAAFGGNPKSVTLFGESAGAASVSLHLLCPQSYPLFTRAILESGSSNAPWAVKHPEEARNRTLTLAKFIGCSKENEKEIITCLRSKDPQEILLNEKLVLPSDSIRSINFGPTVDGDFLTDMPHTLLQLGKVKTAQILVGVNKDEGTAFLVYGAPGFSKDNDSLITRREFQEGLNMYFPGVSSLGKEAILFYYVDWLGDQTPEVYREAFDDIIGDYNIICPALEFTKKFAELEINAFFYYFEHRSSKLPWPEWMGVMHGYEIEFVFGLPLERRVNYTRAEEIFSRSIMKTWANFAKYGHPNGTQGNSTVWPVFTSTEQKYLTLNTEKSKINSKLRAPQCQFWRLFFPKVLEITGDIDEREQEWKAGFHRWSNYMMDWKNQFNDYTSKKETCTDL

| Compound | IC50 [1] | IC50 [2] | IC50 [3] | IC50 [4] |
| --- | --- | --- | --- | --- |
| N#Cc1ccc(Nc2ncnc3c2CCC3)cc1 [Compound B, 4-(4-cyanoanilino)-5,6-dihydro-7H-cyclopenta[d]pyrimidine, reference compound] | > 10000 nM | > 10000 nM | 160 nM | > 10000 nM |
| Cc1ncnc(Nc2ccc(C(=O)/C=C/C3CCN(Cc4ccccc4)CC3)cc2)c1C [Example 1, (E)-N-(5,6-dimethylpyrimidin-4-yl)-4-[3-(1-benzyl-piperidin-4-yl)propenoyl]aniline] | 3.3 nM | > 10000 nM | 1600 nM | > 10000 nM |
| Cc1ncnc(Nc2ccc(C(=O)CCC3CCN(Cc4ccccc4)CC3)cc2)c1C [Example 2, N-(5,6-dimethylpyrimidin-4-yl)-4-[3-(1-benzylpiperidin-4-yl)propanoyl]aniline] | 3.6 nM | > 10000 nM | 890 nM | > 10000 nM |
| O=C(/C=C/C1CCN(Cc2ccccc2)CC1)c1ccc(Nc2ncnc3c2CCC3)cc1 [Example 6, (E)-N-(5,6-dihydro-7H-cyclopenta[d]pyrimidin-4-yl)-4-[3-(1-benzylpiperidin-4-yl)propenoyl]aniline] | 3.1 nM | > 10000 nM | 220 nM | > 10000 nM |
| O=C(CCC1CCN(Cc2ccccc2)CC1)c1ccc(Nc2ncnc3c2CCC3)cc1 [Example 8, N-(5,6-dihydro-7H-cyclopenta[d]pyrimidin-4-yl)-4-[3(1-benzylpiperidin-4-yl)propanoyl]aniline. 2HCl] | 2 nM | > 10000 nM | 85 nM | > 10000 nM |
| O=C(/C=C/C1CCN(Cc2ccccc2)CC1)c1ccc(Nc2ncnc3c2CCCC3)cc1 [Example 9, (E)-N-(5,6,7,8-tetrahydroquinazolin-4-yl)-4-[3-(1-benzylpiperidin-4-yl)propenoyl]aniline] | 1.4 nM | > 10000 nM | 1400 nM | > 10000 nM |
| O=C(CCC1CCN(Cc2ccccc2)CC1)c1ccc(Nc2ncnc3c2CCCC3)cc1 [Example 10, N-(5,6,7,8-tetrahydroquinazolin-4-yl)-4-[3-(1-benzyl-piperidin-4-yl)propanoyl]aniline] | 1.1 nM | > 10000 nM | 320 nM | > 10000 nM |
| O=C1C(=CC2CCN(Cc3ccccc3)CC2)Cc2cc(Nc3ncnc4c3CCC4)ccc21 [Example 21, 4-[1-Oxo-2-(1-benzylpiperidin-4-yl)methyleneindan-5-yl]amino-5,6-dihydro-7H-cyclopenta[d]pyrimidine] | 20 nM | > 10000 nM | 600 nM | > 10000 nM |
| O=C1c2ccc(Nc3ncnc4c3CCC4)cc2CC1CC1CCN(Cc2ccccc2)CC1 (stereo not drawn) [Example 22, 4-[1-Oxo-2-(1-benzylpiperidin-4-yl)methylindan-5-yl]amino-5,6-dihydro-7H-cyclopenta[d]pyrimidine] | 7.3 nM | > 10000 nM | 810 nM | > 10000 nM |
| Cc1cncnc1Nc1ccc(C(=O)CC2CCN(Cc3ccccc3)CC2)cc1 [Example 25, N-(5-methylpyrimidin-4-yl)-4-[(1-benzylpiperidin-4-yl)acetyl]aniline] | 250 nM | > 10000 nM | 340 nM | 6800 nM |
| O=C(CC1CCN(Cc2ccccc2)CC1)c1ccc(Nc2ncnc3c2CCC3)cc1 [Example 26, N-(5,6-dihydro-7H-cyclopenta[d]pyrimidin-4-yl)-4-[(1-benzylpiperidin-4-yl)acetyl]aniline] | 150 nM | > 10000 nM | 56 nM | > 10000 nM |
| O=C(CCC1CCN(Cc2ccccn2)CC1)c1ccc(Nc2ncnc3c2CCC3)cc1 [Example 53, N-(5,6-dihydro-7H-cyclopenta-[d]pyrimidin-4-yl)-4-{3-[1-(2-pyridylmethyl)piperidin-4-yl]-propanoyl}aniline] | 17 nM | > 10000 nM | 85 nM | > 10000 nM |
| O=C(CC1CCN(Cc2cccs2)CC1)c1ccc(Nc2ncnc3c2CCC3)cc1 [Example 87, N-(5,6-dihydro-7H-cyclopenta-[d]pyrimidin-4-yl)-4-{[1-(2-thienylmethyl)piperidin-4-yl]-acetyl}aniline] | 270 nM | > 10000 nM | 35 nM | > 10000 nM |
| Cc1cncnc1Nc1ccc(C(=O)CC2CCN(Cc3cccs3)CC2)cc1 [Example 88, N-(5-methylpyrimidin-4-yl)-4-{[1-(2-thienylmethyl)piperidin-4-yl]acetyl}aniline] | 330 nM | > 10000 nM | 250 nM | 2100 nM |
| CCc1cncnc1Nc1ccc(C(=O)CC2CCN(Cc3ccccc3)CC2)cc1 [Example 93, N-(5-ethylpyrimidin-4-yl)-4-[(1-benzylpiperidin-4-yl)-acetyl]aniline] | 200 nM | > 10000 nM | 420 nM | 7200 nM |
